Target: [35S]-TBPS binding, rat brain cortical membranes (GABAA receptor)
Test: Steroid inhibition of [35S]-TBPS binding
Conditions: 3 nM [35S]-TBPS, in the presence of 5 mM GABA, 90 min at room temp
Method: [^35S]-t-Butylbicyclophosphorothionate (TBPS) binding assays using rat brain cortical membranes in the presence of 5 mM GABA has been described (Gee et al, J. Pharmacol. Exp. Ther. 1987, 241, 346-353; Hawkinson et al, Mol. Pharmacol. 1994, 46, 977-985; Lewin, A. H et al., Mol. Pharmacol. 1989, 35, 189-194).
Briefly, cortices are rapidly removed following decapitation of carbon dioxide-anesthetized Sprague-Dawley rats (200-250 g). The cortices are homogenized in 10 volumes of ice-cold 0.32 M sucrose using a glass/teflon homogenizer and centrifuged at 1500×g for 10 min at 4° C. The resultant supernatants are centrifuged at 10,000×g for 20 min at 4° C. to obtain the P2 pellets. The P2 pellets are resuspended in 200 mM NaCl/50 mM Na-K phosphate pH 7.4 buffer and centrifuged at 10,000×g for 10 min at 4° C. This washing procedure is repeated twice and the pellets are resuspended in 10 volumes of buffer. Aliquots ([…]) of the membrane suspensions are incubated with 3 nM [^35S]-TBPS and […] aliquots of test drug dissolved in dimethyl sulfoxide (DMSO) (final 0.5%) in the presence of 5 mM GABA. The incubation is brought to a final volume of 1.0 mL with buffer. Nonspecific binding is determined in the presence of […] and ranged from 15 to 25%. Following a 90 min incubation at room temp, the assays are terminated by filtration through glass fiber filters (Schleicher and Schuell No. 32) using a cell harvester (Brandel) and rinsed three times with ice-cold buffer. Filter bound radioactivity is measured by liquid scintillation spectrometry. Non-linear curve fitting of the overall data for each drug averaged for each concentration is done using Prism (GraphPad). […] The concentration of test compound producing 50% inhibition (IC50) of specific binding and the maximal extent of inhibition (Imax) are determined for the individual experiments with the same model used for the overall data and then the means±SEM.s of the individual experiments are calculated.
Various compounds are or can be screened to determine their potential as modulators of [^35S]-TBPS binding in vitro. These assays are or can be performed in accordance with the above.

SMILES | IC50 [nM]
COC[C@@]1(O)CC[C@H]2[C@H](CC[C@@H]3[C@@H]2CC[C@@]2(C)[C@H]3[C@H](C)CC[C@@H]2[C@@](C)(O)Cn2cc(C#N)cn2)C1 (single isomer, unassigned) [Example 32] | < 100
CCC[C@@]1(O)CC[C@H]2[C@H](CC[C@@H]3[C@@H]2CC[C@@]2(C)[C@H]3[C@H](C)CC[C@@H]2[C@@](C)(O)Cn2cc(C#N)cn2)C1 (single isomer, unassigned) [Example 34] | < 100
CCC[C@@]1(O)CC[C@H]2[C@@H](CC[C@@H]3[C@@H]2CC[C@@]2(C)[C@H]3CCC[C@@H]2[C@](C)(O)Cn2cc(C#N)cn2)C1 [Example 1, 1-((S)-2-hydroxy-2-((1S,4aS,4bR,6aS,8R,10aS,10bR,12aS)-8-hydroxy-12a-methyl-8-propyloctadecahydrochrysen-1-yl)propyl)-1H-pyrazole-4-carbonitrile] | 100 to 1000
CCC[C@@]1(O)CC[C@H]2[C@@H](CC[C@@H]3[C@@H]2CC[C@@]2(C)[C@H]3CCC[C@@H]2[C@@](C)(O)Cn2cc(C#N)cn2)C1 [Example 2, 1-((R)-2-hydroxy-2-((1S,4aS,4bR,6aS,8R,10aS,10bR,12aS)-8-hydroxy-12a-methyl-8-propyloctadecahydrochrysen-1-yl)propyl)-1H-pyrazole-4-carbonitrile] | 100 to 1000
CC[C@@]1(O)CC[C@H]2[C@H](CC[C@@H]3[C@@H]2CC[C@@]2(C)[C@H]3CCC[C@@H]2[C@](C)(O)Cn2cc(C#N)cn2)C1 [Example 7, 1-((S)-2-((1S,4aS,4bR,6aR,8R,10aS,10bR,12aS)-8-ethyl-8-hydroxy-12a-methyloctadecahydrochrysen-1-yl)-2-hydroxypropyl)-1H-pyrazole-4-carbonitrile] | 100 to 1000
CCC[C@@]1(O)CC[C@H]2[C@H](CC[C@@H]3[C@@H]2CC[C@@]2(C)[C@H]3CCC[C@@H]2[C@](C)(O)Cn2cc(C#N)cn2)C1 [Example 9, 1-((S)-2-hydroxy-2-((1S,4aS,4bR,6aR,8R,10aS,10bR,12aS)-8-hydroxy-12a-methyl-8-propyloctadecahydrochrysen-1-yl)propyl)-1H-pyrazole-4-carbonitrile] | < 100
CC[C@@]1(O)CC[C@H]2[C@@H](CC[C@@H]3[C@@H]2CC[C@@]2(C)[C@H]3CCC[C@@H]2[C@@](C)(O)Cn2cc(C#N)cn2)C1 [Example 11, 1-((R)-2-((1S,4aS,4bR,6aS,8R,10aS,10bR,12aS)-8-ethyl-8-hydroxy-12a-methyloctadecahydrochrysen-1-yl)-2-hydroxypropyl)-1H-pyrazole-4-carbonitrile] | 100 to 1000
C[C@@]1(O)CC[C@@]2(C)[C@H](CC[C@@H]3[C@@H]2CC[C@@]2(C)[C@H]3CCC[C@@H]2[C@@](C)(O)Cn2cc(C#N)cn2)C1 [Example 15, 1-((R)-2-hydroxy-2-((1S,4aS,4bR,6aR,8R,10aS,10bS,12aS)-8-hydroxy-8,10a,12a-trimethyloctadecahydrochrysen-1-yl)propyl)-1H-pyrazole-4-carbonitrile] | 100 to 1000
CCC[C@@]1(O)CC[C@@]2(C)[C@@H](CC[C@@H]3[C@@H]2CC[C@@]2(C)[C@H]3CCC[C@@H]2[C@@](C)(O)Cn2cc(C#N)cn2)C1 [Example 17, 1-((R)-2-hydroxy-2-((1S,4aS,4bR,6aS,8R,10aS,10bS,12aS)-8-hydroxy-10a,12a-dimethyl-8-propyloctadecahydrochrysen-1-yl)propyl)-1H-pyrazole-4-carbonitrile] | ≥ 1000
C[C@]1(O)CCC2=CC[C@H]3[C@@H]4CC[C@H]([C@](C)(O)Cn5cc(C#N)cn5)[C@@]4(C)CC[C@@H]3[C@@]2(C)CC1 [Example 18, 1-((S)-2-hydroxy-2-((1S,3aS,3bS,8S,10aR,10bS,12aS)-8-hydroxy-8,10a,12a-trimethyl-1,2,3,3a,3b,4,6,7,8,9,10,10a,10b,11,12,12a-hexadecahydrocyclohepta[a]cyclopenta[f]naphthalen-1-yl)propyl)-1H-pyrazole-4-carbonitrile] | 100 to 1000
C[C@]1(O)CCC2=CC[C@H]3[C@@H]4CC[C@H]([C@@](C)(O)Cn5cc(C#N)cn5)[C@@]4(C)CC[C@@H]3[C@@]2(C)CC1 [Example 19, 1-((R)-2-hydroxy-2-((1S,3aS,3bS,8S,10aR,10bS,12aS)-8-hydroxy-8,10a,12a-trimethyl-1,2,3,3a,3b,4,6,7,8,9,10,10a,10b,11,12,12a-hexadecahydrocyclohepta[a]cyclopenta[f]naphthalen-1-yl)propyl)-1H-pyrazole-4-carbonitrile] | < 100
C[C@@]1(O)CCC[C@H]2[C@H](CC[C@@H]3[C@@H]2CC[C@@]2(C)[C@H]3CC[C@@H]2[C@](C)(O)Cn2cc(C#N)cn2)C1 [Example 20, 1-((S)-2-hydroxy-2-((1S,3aS,3bR,5aR,7R,10aS,10bR,12aS)-7-hydroxy-7,12a-dimethyloctadecahydrocyclohepta[a]cyclopenta[f]naphthalen-1-yl)propyl)-1H-pyrazole-4-carbonitrile] | < 100
C[C@@]1(O)CCC[C@H]2[C@H](CC[C@@H]3[C@@H]2CC[C@@]2(C)[C@H]3CC[C@@H]2[C@@](C)(O)Cn2cc(C#N)cn2)C1 [Example 21, 1-((R)-2-hydroxy-2-((1S,3aS,3bR,5aR,7R,10aS,10bR,12aS)-7-hydroxy-7,12a-dimethyloctadecahydrocyclohepta[a]cyclopenta[f]naphthalen-1-yl)propyl)-1H-pyrazole-4-carbonitrile] | 100 to 1000
C[C@]1(O)CC[C@@H]2CC[C@@H]3[C@H](CC[C@@]4(C)[C@H]3CC[C@@H]4[C@@](C)(O)Cn3cc(C#N)cn3)[C@@]2(C)CC1 [Example 23, 1-((R)-2-hydroxy-2-((1S,3aS,3bR,5aS,8S,10aS,10bS,12aS)-8-hydroxy-8,10a,12a-trimethyloctadecahydrocyclohepta[a]cyclopenta[f]naphthalen-1-yl)propyl)-1H-pyrazole-4-carbonitrile] | 100 to 1000
C[C@@H]1CC[C@H]([C@@](C)(O)Cn2cc(C#N)cn2)[C@@]2(C)CC[C@H]3[C@@H](CC[C@@H]4C[C@](C)(O)CC[C@@H]43)[C@H]12 [Example 24, 1-((R)-2-hydroxy-2-((1S,4R,4aS,4bR,6aR,8R,10aS,10bR,12aS)-8-hydroxy-4,8,12a-trimethyloctadecahydrochrysen-1-yl)propyl)-1H-pyrazole-4-carbonitrile] | < 100
C[C@@H]1CC[C@H]([C@](C)(O)Cn2cc(C#N)cn2)[C@@]2(C)CC[C@H]3[C@@H](CC[C@@H]4C[C@](C)(O)CC[C@@H]43)[C@H]12 [Example 25, 1-((S)-2-hydroxy-2-((1S,4R,4aS,4bR,6aR,8R,10aS,10bR,12aS)-8-hydroxy-4,8,12a-trimethyloctadecahydrochrysen-1-yl)propyl)-1H-pyrazole-4-carbonitrile] | < 100
C[C@H]1[C@H]2[C@@H]3CC[C@@H]4C[C@](C)(O)CC[C@@H]4[C@H]3CC[C@]2(C)[C@@H]([C@](C)(O)Cn2cc(C#N)cn2)C[C@@H]1C [Example 26, 1-((S)-2-hydroxy-2-((1S,3S,4R,4aS,4bR,6aR,8R,10aS,10bR,12aS)-8-hydroxy-3,4,8,12a-tetramethyloctadecahydrochrysen-1-yl)propyl)-1H-pyrazole-4-carbonitrile] | < 100
C[C@H]1[C@H]2[C@@H]3CC[C@@H]4C[C@](C)(O)CC[C@@H]4[C@H]3CC[C@]2(C)[C@@H]([C@@](C)(O)Cn2cc(C#N)cn2)C[C@@H]1C [Example 27, 1-((R)-2-hydroxy-2-((1S,3S,4R,4aS,4bR,6aR,8R,10aS,10bR,12aS)-8-hydroxy-3,4,8,12a-tetramethyloctadecahydrochrysen-1-yl)propyl)-1H-pyrazole-4-carbonitrile] | < 100

From patent US12552829B2, “Compositions and methods for treating CNS disorders” (SAGE THERAPEUTICS, INC., priority 2019, dated 2026)
